Assay results reported in patent US6670365B1, “Substituted imidazo 1,2a}azines as selective inhibitors of cox-2” (Laboratorios S.A.L.V.A.T., S.A., priority 1998, dated 2003).

Assays:
[1] = target: T1, COX-2 (Homo sapiens, UniProt P35354); test: Assay for in vitro COX-2 inhibition in LPS-stimulated human whole blood (PGE2 by EIA); assay type: cell-based; settings: for IC50: human whole blood, compound 0.1 to 25 μM, 15 minutes at 37° C., LPS 100 μg/mL for 24 h, PGE2 levels in plasma by EIA; for selective COX-2 inhibitory activity (COX-2 in preference to COX-1): in vitro, statement in words referring to Table 1
T1 construct: endogenous in cells; host or cells: human whole blood from volunteers, stimulated with LPS
T1 sequence (P35354 18-604): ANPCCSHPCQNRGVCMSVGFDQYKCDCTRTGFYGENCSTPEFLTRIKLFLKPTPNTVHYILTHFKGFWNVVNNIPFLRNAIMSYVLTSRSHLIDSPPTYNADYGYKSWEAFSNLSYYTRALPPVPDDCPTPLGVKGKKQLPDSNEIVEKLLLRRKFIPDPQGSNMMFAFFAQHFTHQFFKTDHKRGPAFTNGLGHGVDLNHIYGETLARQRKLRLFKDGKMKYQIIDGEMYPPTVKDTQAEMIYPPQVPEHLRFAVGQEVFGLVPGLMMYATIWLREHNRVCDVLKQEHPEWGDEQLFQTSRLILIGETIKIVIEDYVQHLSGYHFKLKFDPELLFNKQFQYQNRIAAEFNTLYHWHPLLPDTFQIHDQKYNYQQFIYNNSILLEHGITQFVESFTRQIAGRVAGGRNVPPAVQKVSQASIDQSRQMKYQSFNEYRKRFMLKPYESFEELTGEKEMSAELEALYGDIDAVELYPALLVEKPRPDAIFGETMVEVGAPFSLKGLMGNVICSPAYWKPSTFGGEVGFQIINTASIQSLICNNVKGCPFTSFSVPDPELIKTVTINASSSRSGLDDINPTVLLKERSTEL
Protocol: Assay for in vitro COX-2 Inhibition
Human whole blood from volunteers with no apparent inflammatory conditions and not having taken any NSAIDs for at least 15 days prior to blood collection was used to evaluate the COX-2 inhibitory effect of the synthesized compounds. […] At the end of the incubation, the blood was centrifuged at 10.000 rpm to obtain plasma, and the samples were stored at −80° C. PGE2 levels in plasma were established using EIA (Cayman Chemical).

[2] = target: T2, COX-1 (Homo sapiens, UniProt P23219); test: Assay for in vitro COX-1 inhibition in fresh whole blood without anticoagulants (TXB2 by EIA); assay type: cell-based; settings: no anticoagulants, compound 0.1 to 100 μM, 37° C. for 1 hour, TXB2 levels in plasma by EIA
T2 construct: Fresh blood was collected into sterile containers with no anticoagulants; endogenous in cells; host or cells: fresh whole blood without anticoagulants (platelet COX-1, TXB2 read-out)
T2 sequence (P23219 24-599): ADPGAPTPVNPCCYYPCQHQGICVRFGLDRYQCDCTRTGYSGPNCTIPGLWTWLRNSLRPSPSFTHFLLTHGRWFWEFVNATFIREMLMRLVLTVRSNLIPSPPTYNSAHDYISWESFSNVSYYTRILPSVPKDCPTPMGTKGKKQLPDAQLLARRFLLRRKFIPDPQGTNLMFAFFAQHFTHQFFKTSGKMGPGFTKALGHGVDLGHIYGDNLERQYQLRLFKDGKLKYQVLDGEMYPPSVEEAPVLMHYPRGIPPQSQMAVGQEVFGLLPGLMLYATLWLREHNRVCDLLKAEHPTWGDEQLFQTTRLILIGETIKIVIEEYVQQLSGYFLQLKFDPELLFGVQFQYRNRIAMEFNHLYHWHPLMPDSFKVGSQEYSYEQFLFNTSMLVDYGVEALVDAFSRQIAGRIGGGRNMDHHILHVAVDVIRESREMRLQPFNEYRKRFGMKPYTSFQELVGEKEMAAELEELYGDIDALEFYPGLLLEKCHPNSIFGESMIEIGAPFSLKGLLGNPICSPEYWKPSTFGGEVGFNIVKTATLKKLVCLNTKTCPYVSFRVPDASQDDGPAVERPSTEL
Protocol: Assay for in vitro COX-1 Inhibition
Fresh blood was collected into sterile containers with no anticoagulants. Aliquots of 500 μL were immediately transferred to eppendorf tubes, preloaded with a test compound each, at final concentrations varying from 0.1 to 100 μM. The eppendorf tubes were vortexed and incubated at 37° C. for 1 hour. At the end of incubation, plasma was obtained by centrifugation and stored at −80° C. TXB2 levels in plasma were established using EIA (Cayman Chemical).

Compound	IC50 [1]	IC50 [2]	selective COX-2 inhibitory activity (COX-2 in preference to COX-1) [1]
COc1ccc(-c2nc3ccccn3c2-c2ccc(S(C)(=O)=O)cc2)cc1Cl [Product Ihhh, 2-(3-chloro-4-methoxyphenyl)-3-(4-methylsulfonylphenyl)imidazo[1,2a]pyridine]	6.8 µM	82 µM	–
Cc1ccc(-c2nc3ncccn3c2-c2ccc(S(C)(=O)=O)cc2)cc1 [Product Ib, 2-(4-methylphenyl)-3-(4-methylsulfonylphenyl)imidazo[1,2a]pyrimidine]	–	> 50 µM	–
Cc1ccn2c(-c3ccc(S(C)(=O)=O)cc3)c(-c3ccc(C)c(C)c3)nc2n1 [Product In, 7-methyl-2-(3,4-dimethylphenyl)-3-(4-methylsulfonylphenyl)imidazo[1,2a]pyrimidine]	4.2 µM	2 µM	–
COc1ccc(-c2nc3ncccn3c2-c2ccc(S(C)(=O)=O)cc2)cc1Cl [Product Ik, 2-(3-chloro-4-methoxyphenyl)-3-(4-methylsulfonylphenyl)imidazo[1,2a]pyrimidine]	3.9 µM	61 µM	–
CS(=O)(=O)c1ccc(-c2c(-c3ccc(Cl)cc3)nc3ncccn23)cc1 [Product Id, 2-(4-chlorophenyl)-3-(4-methylsulfonylphenyl)imidazo[1,2a]pyrimidine]	> 10 µM	> 50 µM	–
Cc1ccc(-c2nc3ncccn3c2-c2ccc(S(N)(=O)=O)cc2)cc1 [Product Io, 2-(4-methylphenyl)-3-(4-aminosulfonylphenyl)imidazo[1,2a]pyrimidine]	4.5 µM	> 50 µM	–
COc1ccc(-c2nc3ncccn3c2-c2ccc(S(C)(=O)=O)cc2)cc1 [Product If, 2-(4-methoxyphenyl)-3-(4-methylsulfonylphenyl)imidazo[1,2a]pyrimidine]	1.4 µM	25 µM	specially selective COX-2 inhibitory activity
2-(4-fluorophenyl)-3-(4-methylsulfonylphenyl)imidazo[1,2a][1,2,4]triazine [Product Ibb]	2.2 µM	50 µM	–
2-(3-fluorophenyl)-3-(4-aminosulfonylphenyl)imidazo[1,2a][1,2,4]triazine [Product Ihh]	–	100 µM	–
Cc1ccccc1-c1nc2ccccn2c1-c1ccc(S(N)(=O)=O)cc1 [Product Innn, 2-(2-methylphenyl)-3-(4-aminosulfonylphenyl)imidazo[1,2a]pyridine]	> 5 µM	> 100 µM	–
NS(=O)(=O)c1ccc(-c2c(-c3cccc(F)c3)nc3ccccn23)cc1 [Product Iqqq, 2-(3-fluorophenyl)-3-(4-aminosulfonylphenyl)imidazo[1,2a]pyridine]	> 10 µM	> 100 µM	–
COc1ccc(-c2nc3ccccn3c2-c2ccc(S(N)(=O)=O)cc2)cc1C [Product Iuuu, 2-(3-methyl-4-methoxyphenyl)-3-(4-aminosulfonylphenyl)imidazo[1,2a]pyridine]	1.7 µM	25 µM	–
2-phenyl-3-(4-aminosulfonylphenyl)imidazo[1,2a][1,2,4]triazine [Product Idd]	3.8 µM	> 50 µM	–
CS(=O)(=O)c1ccc(-c2c(-c3ccccc3)nc3ncccn23)cc1 [Product Ia, 2-phenyl-3-(4-methylsulfonylphenyl)imidazo [1,2a]pyrimidine]	5.5 µM	> 50 µM	–
CS(=O)(=O)c1ccc(-c2c(-c3ccc(F)cc3)nc3ncccn23)cc1 [Product Ic, 2-(4-fluorophenyl)-3-(4-methylsulfonylphenyl)imidazo[1,2a]pyrimidine]	2.9 µM	> 50 µM	specially selective COX-2 inhibitory activity
CCOc1ccc(-c2nc3ncccn3c2-c2ccc(S(C)(=O)=O)cc2)cc1 [Product Ig, 2-(4-ethoxyphenyl)-3-(4-methylsulfonylphenyl)imidazo[1,2a]pyrimidine]	1 µM	–	specially selective COX-2 inhibitory activity
COc1ccc(-c2nc3ncccn3c2-c2ccc(S(C)(=O)=O)cc2)cc1C [Product Ii, 2-(3-methyl-4-methoxyphenyl)-3-(4-methylsulfonylphenyl)imidazo[1,2a]pyrimidine]	2.2 µM	30 µM	–
COc1ccc(-c2nc3ccccn3c2-c2ccc(S(C)(=O)=O)cc2)cc1C [Product Ifff, 2-(3-methyl-4-methoxyphenyl)-3-(4-methylsulfonylphenyl)imidazo[1,2a]pyridine]	1 µM	45 µM	–
2-(3-methylphenyl)-3-(4-aminosulfonylphenyl)imidazo[1,2a][1,2,4]triazine [Product Igg]	2.8 µM	10 µM	–
Cc1ccc(-c2nc3ncccn3c2-c2ccc(S(C)(=O)=O)cc2)cc1C [Product Ih, 2-(3,4-dimethylphenyl)-3-(4-methylsulfonylphenyl)imidazo[1,2a]pyrimidine]	2.8 µM	> 50 µM	–
COc1ccc(-c2nc3ccccn3c2-c2ccc(S(C)(=O)=O)cc2)cc1 [Product Iccc, 2-(4-methoxyphenyl)-3-(4-methylsulfonylphenyl)imidazo[1,2a]pyridine]	3.3 µM	40 µM	–
Cc1cccc(-c2nc3ccccn3c2-c2ccc(S(N)(=O)=O)cc2)c1 [Product Ippp, 2-(3-methylphenyl)-3-(4-aminosulfonylphenyl)imidazo[1,2a]pyridine]	3.1 µM	–	–
2-phenyl-3-(4-methylsulfonylphenyl)imidazo[1,2a][1,2,4]triazine [Product Iaa]	3.1 µM	76 µM	–
CCOc1ccc(-c2nc3ccccn3c2-c2ccc(S(C)(=O)=O)cc2)cc1 [Product Iddd, 2-(4-ethoxyphenyl)-3-(4-methylsulfonylphenyl)imidazo[1,2a]pyridine]	3.5 µM	80 µM	–
